Measurements as given in patent US20260184706A1, “PHENYLSULFONAMIDE DERIVATIVES, PREPARATION METHOD THEREFOR, AND PHARMACEUTICAL COMPOSITION FOR PREVENTION OR TREATMENT OF CANCER CONTAINING SAME AS ACTIVE INGREDIENT” (Korea Research Institute of Chemical Technology, priority 2022, published 2026).

Columns and labels:
phosphorylated GCN2 = biological target: T1, phosphorylated GCN2 (Homo sapiens, UniProt Q9P2K8); assay: Inhibition of phosphorylated GCN2 under amino acid deficiency in HT-1080 cells, Western blot; assay type: cell-based; details: compound 50 nM, 24 hours; for Phospho-GCN2 inhibition: symbols ◯ / X not defined
T1 construct: endogenous in cells; host or cells: HT-1080
T1 sequence (Q9P2K8 whole entry): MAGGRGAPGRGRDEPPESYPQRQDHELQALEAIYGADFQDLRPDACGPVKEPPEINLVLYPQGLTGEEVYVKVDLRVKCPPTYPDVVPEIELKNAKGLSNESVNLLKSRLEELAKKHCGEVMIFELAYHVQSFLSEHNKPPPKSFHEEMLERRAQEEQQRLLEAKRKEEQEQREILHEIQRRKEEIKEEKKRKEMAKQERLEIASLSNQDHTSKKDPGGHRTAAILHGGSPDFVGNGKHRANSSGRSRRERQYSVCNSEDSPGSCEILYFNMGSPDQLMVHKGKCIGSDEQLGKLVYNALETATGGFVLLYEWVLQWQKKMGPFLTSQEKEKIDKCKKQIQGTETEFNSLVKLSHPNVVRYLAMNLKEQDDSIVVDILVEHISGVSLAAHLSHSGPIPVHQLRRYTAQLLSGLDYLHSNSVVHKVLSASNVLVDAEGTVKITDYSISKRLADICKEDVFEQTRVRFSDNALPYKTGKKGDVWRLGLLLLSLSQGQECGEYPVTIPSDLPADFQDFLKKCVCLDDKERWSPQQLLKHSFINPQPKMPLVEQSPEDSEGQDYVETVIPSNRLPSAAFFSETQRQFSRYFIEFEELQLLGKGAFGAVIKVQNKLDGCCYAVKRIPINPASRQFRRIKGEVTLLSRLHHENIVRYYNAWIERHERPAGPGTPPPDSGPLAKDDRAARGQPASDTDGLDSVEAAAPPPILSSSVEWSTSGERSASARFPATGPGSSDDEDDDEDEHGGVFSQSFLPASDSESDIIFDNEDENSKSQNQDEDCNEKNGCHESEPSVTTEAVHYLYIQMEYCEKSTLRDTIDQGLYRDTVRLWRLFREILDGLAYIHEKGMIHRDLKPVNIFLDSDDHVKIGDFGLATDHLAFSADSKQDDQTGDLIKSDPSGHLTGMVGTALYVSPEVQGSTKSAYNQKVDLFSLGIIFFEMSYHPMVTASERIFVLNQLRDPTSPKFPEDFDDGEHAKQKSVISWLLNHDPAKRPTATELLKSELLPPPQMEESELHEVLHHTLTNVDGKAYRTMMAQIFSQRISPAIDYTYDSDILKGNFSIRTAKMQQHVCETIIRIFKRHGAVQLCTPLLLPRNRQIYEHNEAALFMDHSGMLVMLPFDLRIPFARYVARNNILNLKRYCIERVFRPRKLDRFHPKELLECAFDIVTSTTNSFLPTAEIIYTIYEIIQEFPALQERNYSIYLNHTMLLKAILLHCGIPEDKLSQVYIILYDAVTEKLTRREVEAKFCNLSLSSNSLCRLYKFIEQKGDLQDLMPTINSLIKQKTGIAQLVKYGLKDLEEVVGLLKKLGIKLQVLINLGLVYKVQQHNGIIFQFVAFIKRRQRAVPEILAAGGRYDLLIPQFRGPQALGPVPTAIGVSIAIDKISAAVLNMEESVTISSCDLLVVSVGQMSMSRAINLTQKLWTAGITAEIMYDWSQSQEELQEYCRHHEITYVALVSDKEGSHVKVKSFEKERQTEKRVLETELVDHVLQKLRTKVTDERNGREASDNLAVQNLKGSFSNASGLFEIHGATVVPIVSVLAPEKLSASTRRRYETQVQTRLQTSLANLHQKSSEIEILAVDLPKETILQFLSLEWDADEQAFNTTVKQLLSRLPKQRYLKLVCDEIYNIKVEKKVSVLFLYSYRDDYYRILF
Description: (§1) <Experimental Example 5> Evaluation of Inhibitory Efficacy of ISR-Related Kinase GCN2 Under Amino Acid Deficiency Condition Using Western Blot
(§2) HT-1080 cells, a human fibrosarcoma cell line, were cultured in RPMI-1640 medium supplemented with 10% FBS, penicillin (penicillin; 100 IU/ml), and streptomycin (streptomycin; 100 μg/ml). Cells (1×10^6 cells/ml) were seeded onto 100 mm plates (polypropylene tissue culture plate) and incubated for 24 hours in a 37° C., 5% CO2 incubator before being used for experiments.
(§3) The following method was used to achieve amino acid deficiency conditions in cells. After 24 hours of cell culture, the cells were cultured in amino acids and L-glutamine-free RPMI-1640 medium supplemented with 10% FBS, penicillin (100 IU/ml), and streptomycin (100 μg/ml). After 24 hours of cell culture in RPMI-1640 without amino acids and L-glutamine, the compound prepared at a concentration of 50 nM was dispensed onto each plate and cultured for 24 hours in a 37° C., 5% CO2 incubator.
(§4) In order to measure the signal transduction inhibitory efficacy of GCN among the ISR-related kinases according to the present invention, the following experiment was performed using SDS-PAGE. The fibrosarcoma cell line HT-1080 cells cultured on plates as described above were washed with PBS after removing the culture medium. After removing PBS, the cells were lysed by adding a radio-immunoprecipitation assay buffer (RIPA buffer) containing 50 mM Tris (pH 7.4), 150 mM NaCl, 1% NP-40, 0.5% sodium deoxycholate, 2 mM sodium fluoride, 2 mM EDTA, 0.1% SDS, and a protease/phosphatase inhibitor cocktail to the plate. After centrifugation at 4° C., 13,000×g for 15 minutes, the protein in the upper layer was collected, and the protein concentration was measured at 562 nm using BCA (bicinchoninc acid) reagent, and the amount of protein in all samples was prepared at 20-50 μg.
(§5) After making the total volume the same using the sample buffer and RIPA buffer, it was heated at 97° C. for 5 minutes. Then, electrophoresis was performed on 8% or 12% SDS-PAGE at 80 V for 30 minutes and at 160 V for 1 hour and 30 minutes. After electrophoresis, the SDS-PAGE gel was transferred to an NC membrane (nitrocellulose membrane) at 90 V for 2 hours. The NC membrane was placed in TBST (tris buffer saline tween-20; 20 mM tris, 137 mM sodium chloride, 0.1% tween-20, pH 8.0) containing 5% non-fat skim milk, placed on a shaker, and reacted at room temperature for 1 hour.
(§6) Each primary antibody was diluted in TBST containing 5% non-fat skim milk, poured onto the NC membrane, and reacted at 4° C. for 24 hours. The membrane was washed three times for 10 minutes each with TBST. The secondary antibodies (anti-rabbit IgG and anti-mouse IgG labeled with horseradish peroxidase (HRP)) were diluted in TBST containing 5% non-fat skim milk and reacted with the membrane at room temperature for 1 hour. Upon completion of the reaction, the membrane was washed three times with TBST for 10 minutes each. Protein expression bands were detected by a chemiluminescence image analyzer (Image Quant LAS 500) after the ECL solution was reacted with the NC membrane.
GCN2, a key kinase of the integrated stress response (ISR), is phosphorylated in response to amino acid deficiency.

ATF4 = assay: Inhibition of ATF4, downstream factor of ISR, in HT-1080 cells, Western blot (FIG. 1); assay type: cell-based, human; details: amino acid deficiency, compound 50 nM, 24 hours
Description: as §1, §2, §3, §4, §5, §6
FIG. 1 is a set of photographs confirming the mechanism proteins that react upon ISR activation, wherein the numbers correspond to example numbers of the present invention. […] They are also known to have an effect on increasing the expression of CHOP (GADD153), the most downstream factor of the mechanism. […] Thus, in addition to the activation of ISR by amino acid deficiency, a significant effect can be expected on the mechanism of inhibition of the activity of PERK, an ISR-related kinase, due to endoplasmic reticulum stress response.

Compound | inhibitory effect on the phosphorylated GCN2 (phosphorylated GCN2) | Phospho-GCN2 inhibition (phosphorylated GCN2) | inhibitory effect on ATF4 (FIG. 1) (ATF4)
COc1ncc(Cl)cc1S(=O)(=O)Nc1ccc(F)c(-n2cc(C(F)F)c3nc(N)ncc3c2=O)c1F [Example 22, N-(3-(2-amino-8-(difluoromethyl)-5-oxopirido[4,3-d]pyrimidin-6(5H)-yl)-2,4-difluorophenyl)-5-chloro-2-methoxypyridine-3-sulfonamide] | excellent inhibitory effects | ◯ | excellent inhibitory effects
Nc1ncc2c(=O)n(-c3c(F)ccc(NS(=O)(=O)c4cc(Cl)cnc4Cl)c3F)ccc2n1 [Example 27, N-(3-(2-amino-5-oxopirido[4,3-d]pyrimidin-6(5H)-yl)-2,4-difluorophenyl)-2,5-dichloropyridine-3-sulfonamide] | excellent inhibitory effect | ◯ | 
Nc1ncc2c(=O)n(-c3c(F)ccc(NS(=O)(=O)c4cccc5ccccc45)c3F)ccc2n1 [Example 29, N-(3-(2-amino-5-oxopirido[4,3-d]pyrimidin-6(5H)-yl)-2,4-difluorophenyl)naphthalene-1-sulfonamide] | excellent inhibitory effects | ◯ | excellent inhibitory effects

Now from value to molecule, other results behind:

inhibitory effect on the phosphorylated GCN2 (phosphorylated GCN2) | Phospho-GCN2 inhibition (phosphorylated GCN2) | Compound | inhibitory effect on ATF4 (FIG. 1) (ATF4)
excellent inhibitory effect | ◯ | CNc1ncc2c(=O)n(-c3c(F)ccc(NS(=O)(=O)c4cc(Cl)cnc4OC)c3F)ccc2n1 [Example 32, 5-chloro-N-(2,4-difluoro-3-(2-(methylamino)-5-oxopirido[4,3-d]pyrimidin-6(5H)-yl)phenyl)-2-methoxypyridine-3-sulfonamide] | 
excellent inhibitory effects | ◯ | COc1ncc(Cl)cc1S(=O)(=O)Nc1ccc(F)c(-n2c(=O)c3cnc(N)nc3n(C)c2=O)c1F [Example 44, N-(3-(7-amino-1-methyl-2,4-dioxo-1,4-dihydropyrimido[4,5-d]pyrimidin-3(2H)-yl)-2,4-difluorophenyl)-5-chloro-2-methoxypyridine-3-sulfonamide] | excellent inhibitory effects
excellent inhibitory effects | ◯ | COc1ncc(Br)cc1S(=O)(=O)Nc1ccc(F)c(-n2c(=O)c3cnc(N)nc3n(C)c2=O)c1F [Example 46, N-(3-(7-amino-1-methyl-2,4-dioxo-1,4-dihydropyrimido[4,5-d]pyrimidin-3(2H)-yl)-2,4-difluorophenyl)-5-bromo-2-methoxypyridine-3-sulfonamide] | excellent inhibitory effects
